Patent US10463660B2, “Benzoic acid, benzoic acid derivatives and heteroaryl carboxylic acid conjugates of oxymorphone, prodrugs, methods of making and use thereof” (KemPharm, Inc., priority 2014, dated 2019)

What was measured:
[1] = Intranasal PK profiles of conjugated oxymorphone in rats (released oxymorphone in plasma by LC-MS/MS); type: in vivo; conditions: for %-AUC / %-Cmax / %-Tmax: 0.2 mg/kg oxymorphone equivalent, relative to the OM control; for AUC / Cmax / Tmax: conjugate equivalent to 0.2 mg/kg freebase oxymorphone, released oxymorphone in plasma
Method: Intranasal PK curves were determined for a number of prodrug conjugates of the present technology. Rats were intranasally administered at an amount of the conjugate equivalent to 0.2 mg/kg of freebase oxymorphone and the plasma concentrations of released oxymorphone were measured over time by LC-MS/MS.
All PK parameters from the above experiments were calculated and expressed as % change from the control (OM). These PK parameters included maximal plasma concentration (Cmax), area under curve (AUC), and time at which Cmax occurred (Tmax). These parameters are shown in Table 2 relative to the OM controls.

[2] = Oral PK profiles of conjugated oxymorphone in rats (released oxymorphone in plasma by LC-MS/MS); type: in vivo, Sprague-Dawley rats; conditions: for %-AUC / %-Cmax / %-Tmax: 2 mg/kg oxymorphone equivalent, relative to the OM control; for AUC / Cmax / Tmax: conjugate equivalent to 2 mg/kg freebase oxymorphone, released oxymorphone in plasma
Method: Oral PK curves were determined for a number of prodrug conjugates of the present technology. Rats were orally administered at an amount of the conjugate equivalent to 2 mg/kg of freebase oxymorphone and the plasma concentrations of released oxymorphone were measured over time by LC-MS/MS.
All PK parameters from the above experiments were calculated and expressed as % change from the control (OM). These PK parameters included maximal plasma concentration (Cmax), area under curve (AUC), and time at which Cmax occurred (Tmax).

Row | SMILES | %-AUC [1] | %-Cmax [1] | %-Tmax [1] | AUC [1] | Cmax [1] | Tmax [1] | %-AUC [2] | %-Cmax [2] | %-Tmax [2] | AUC [2] | Cmax [2] | Tmax [2]
1 | COc1ccc(C(=O)OC2=CCC3(O)C4Cc5ccc(OC(=O)c6ccc(OC)cc6)c6c5C3(CCN4C)C2O6)cc1 (stereo not drawn) [3,6-(4-MeO-Bz)2-OM] | 30% | 9% | 167% | 24.6 ng·h/mL | 33.5 ng/mL | 8.4 min | 110% | 121% | 35% | 26.0 ng·h/mL | 10.6 ng/mL | 15 min
2 | CN1CC[C@]23c4c5ccc(OC(=O)/C=C/c6ccccc6)c4O[C@H]2C(OC(=O)/C=C/c2ccccc2)=CC[C@@]3(O)[C@H]1C5 [3,6-(Cinnamate)2-OM] | – | – | – | – | – | – | 38% | 43% | 50% | 14.5 ng·h/mL | 8.7 ng/mL | 45 min
3 | CC(=O)Oc1ccccc1C(=O)Oc1ccc2c3c1OC1C(=O)CCC4(O)C(C2)N(C)CCC314 (stereo not drawn) [3-(2-AcO-Bz)-OM] | – | – | – | – | – | – | 72% | 78% | 25% | 22.5 ng·h/mL | 15.8 ng/mL | 15 min
4 | CN1CC[C@]23c4c5ccc(OC(=O)c6ccccc6O)c4O[C@H]2C(=O)CC[C@@]3(O)[C@H]1C5 [3-(2-OH-Bz)-OM] | 66% | 55% | 100% | 65.9 ng·h/mL | 276.1 ng/mL | 4.8 min | 72% | 74% | 62% | 31.3 ng·h/mL | 17.5 ng/mL | 39 min
5 | COc1ccc(C(=O)Oc2ccc3c4c2O[C@H]2C(=O)CC[C@@]5(O)[C@@H](C3)N(C)CC[C@]425)cc1 [3-(4-MeO-Bz)-OM] | 76% | 61% | 100% | 63.1 ng·h/mL | 244.9 ng/mL | 4.8 min | 100% | 99% | 100% | 43.2 ng·h/mL | 23.6 ng/mL | 63 min
6 | CN1CC[C@]23c4c5ccc(OC(=O)/C=C/c6ccccc6)c4O[C@H]2C(=O)CC[C@@]3(O)[C@H]1C5 [3-Cinnamate-OM] | – | – | – | – | – | – | 190% | 236% | 136% | 36.8 ng·h/mL | 19.0 ng/mL | 90 min
7 | CN1CC[C@]23c4c5ccc(OC(=O)c6cc(-c7ccc(F)cc7F)ccc6O)c4O[C@H]2C(=O)CC[C@@]3(O)[C@H]1C5 [3-Diflunisal-OM] | 131% | 41% | 200% | 108.2 ng·h/mL | 151.5 ng/mL | 10.2 min | 85% | 52% | 340% | 17.6 ng·h/mL | 13.2 ng/mL | 51 min
8 | CC(C(=O)Oc1ccc2c3c1O[C@H]1C(=O)CC[C@@]4(O)[C@@H](C2)N(C)CC[C@]314)c1cccc(Oc2ccccc2)c1 (stereo partly drawn) [3-Fenoprofen-OM] | – | – | – | – | – | – | 59% | 52% | 100% | 14.8 ng·h/mL | 9.6 ng/mL | 36 min
9 | CC(C(=O)Oc1ccc2c3c1O[C@H]1C(=O)CC[C@@]4(O)[C@@H](C2)N(C)CC[C@]314)c1cccc(C(=O)c2ccccc2)c1 (stereo partly drawn) [3-Ketoprofen-OM] | – | – | – | – | – | – | 159% | 150% | 30% | 49.7 ng·h/mL | 30.3 ng/mL | 18 min
10 | COc1cc(C(=O)Oc2ccc3c4c2O[C@H]2C(=O)CC[C@@]5(O)[C@@H](C3)N(C)CC[C@]425)ccc1O [3-Vanillate-OM] | – | – | – | – | – | – | 92% | 97% | 46% | 14.7 ng·h/mL | 7.5 ng/mL | 48 min
11 | CN1CC[C@]23c4c5ccc(O)c4O[C@H]2C(OC(=O)c2ccccc2O)=CC[C@@]3(O)[C@H]1C5 [6-(2-OH-Bz)-OM] | – | – | – | – | – | – | 134% | 157% | 60% | 50.6 ng·h/mL | 31.6 ng/mL | 45 min
12 | CN1CC[C@]23c4c5ccc(O)c4O[C@H]2C(OC(=O)c2cccc(N)c2)=CC[C@@]3(O)[C@H]1C5 [6-(3-ABz)-OM] | – | – | – | – | – | – | 46% | 32% | 276% | 16.7 ng·h/mL | 6.2 ng/mL | 114 min
13 | COc1ccc(C(=O)OC2=CC[C@@]3(O)[C@H]4Cc5ccc(O)c6c5[C@@]3(CCN4C)[C@H]2O6)cc1 [6-(4-MeO-Bz)-OM] | – | – | – | – | – | – | 69% | 90% | 22% | 12.2 ng·h/mL | 8.6 ng/mL | 15 min
14 | CN1CC[C@]23c4c5ccc(O)c4O[C@H]2C(OC(=O)/C=C/c2ccccc2)=CC[C@@]3(O)[C@H]1C5 [6-Cinnamate-OM] | – | – | – | – | – | – | 77% | 59% | 225% | 28.0 ng·h/mL | 11.4 ng/mL | 93 min
15 | CN1CC[C@]23c4c5ccc(O)c4O[C@H]2C(OC(=O)c2cc(-c4ccc(F)cc4F)ccc2O)=CC[C@@]3(O)[C@H]1C5 [6-Diflunisal-OM] | 25% | 11% | 100% | 20.7 ng·h/mL | 39.1 ng/mL | 4.8 min | – | – | – | 67.2 ng·h/mL | 50.6 ng/mL | 15 min
16 | CC(C(=O)OC1=CCC2(O)C3Cc4ccc(O)c5c4C2(CCN3C)C1O5)c1cccc(C(=O)c2ccccc2)c1 (stereo not drawn) [6-Ketoprofen-OM] | – | – | – | – | – | – | 99% | 47% | 260% | 20.6 ng·h/mL | 11.8 ng/mL | 39 min
17 | COc1cc(C(=O)OC2=CC[C@@]3(O)[C@H]4Cc5ccc(O)c6c5[C@@]3(CCN4C)[C@H]2O6)ccc1O [6-Vanillate-OM] | – | – | – | – | – | – | 56% | 65% | 97% | 8.9 ng·h/mL | 5.0 ng/mL | 102 min
18 | CN1CC[C@]23c4c5ccc(O)c4O[C@H]2C(OC(=O)c2ccccc2)=CC[C@@]3(O)[C@H]1C5 [Conjugate 6-Bz-OM] | 42% | 36% | 100% | 35.1 ng·h/mL | 145.2 ng/mL | 4.8 min | 78% | 67% | 129% | 15.0 ng·h/mL | 6.4 ng/mL | 108 min
